Results as given in the NIST ThermoML archive (doi:10.1016/j.jct.2017.03.016).

Tests used:
[1] = refractive index (Na D-line) (dimensionless); settings: 101.33 kPa, Liquid, Standard Abbe refractometry
[2] = for surface tension liquid-gas: Maximal bubble pressure; for mass density: 101.33 kPa, Liquid, Vibrating tube method

CCn1cc[n+](CCOC)c1.N#C[N-]C#N [1-ethyl-3-(2-methoxyethyl)imidazolium dicyanamide]
Settings	mass density, [2] [kg/m3]	refractive index, [1]	surface tension liquid-gas, [2] [mN/m]
298.15 K	1113.6	1.5053	51
303.15 K	1110.21	1.504	50.7
308.15 K	1106.83	1.5028	50.4
313.15 K	1103.48	1.5017	50.1
318.15 K	1100.15	1.5	49.8
323.15 K	1096.84	1.4989	49.5
328.15 K	1093.53	1.4977	49.3
333.15 K	1090.26	1.496	49.1
338.15 K	1087	1.4946	48.8
